According to patent US9919978B2, “Selenium-doped nano silica sol used for producing selenium-enriched rice and capable of suppressing absorption and accumulation of heavy metals in paddy rice and preparation method therefor” (GUANGDONG INSTITUTE OF ECO-ENV[…] & TECHNOLOGY, priority 2013, dated 2018):

Tested on: rice
Assay: Pot experiment: foliar application on rice grown in arsenic-contaminated soil (Example 4)
Type: in vivo, rice (variety Youyou 128)
Excerpt: The pot experiment for showing the effects of relieving the heavy metal poison in rice by foliar application of the selenium-doped nano-silica sol.
The soils to be tested were collected from an arsenic-contaminated rice field, in Yanhong Town, Chenghai District, Shantou City, Guangdong Province, China, the surface layer of the cultivated soils (0-10 cm) in the rice field was taken as the soil, air-dried and sieved, 10 kg of the soil were weighed and filled into barrels, wherein the basic physical and chemical properties of the soil were as follows: pH 6.12, organic matter 2.73%, total nitrogen 1.5 g/kg, total phosphorus 1.02 g/kg, total potassium 11.3 g/kg, CEC 8.75 cmol/kg, total arsenic 93.6 mg/kg, and total selenium 0.879 mg/kg.
Cultivation and treatment of rice: the rice variety was Youyou 128, the rice seed surface was disinfected for 15 minutes with 5% sodium hypochlorite solution, after washing with tap water, germination and seedling were carried out, then the uniform young seedlings were selected and transplanted. […] Each of the treatments was repeated four times, and the rices were harvested after they were matured. The dry weight of rice per pot was weighed, and the arsenic and selenium contents in rice were analyzed.

**Q.** Which “selenium content in rice relative to that after the selenium-doped nano-silica sol with 1% selenium” value (foliar application) does the source give for O=[Se]([O-])[O-].[Na+].[Na+] [1% Se, sodium selenite] here?
**A.** 66%

**Q.** And the “dry weight of rice grain reduced as compared with the control” value (foliar application at tillering stage, diluted 100-fold, arsenic-contaminated soil)?
**A.** 13.1%

**Q.** And the “selenium content in rice” value (foliar application, diluted 100-fold, control 0.050 mg/kg)?
**A.** 0.180 mg/kg

**Q.** What about the “reduction of arsenic content in rice as compared with the control” value (foliar application, diluted 100-fold, soil total arsenic 93.6 mg/kg) of the same compound?
**A.** 19%
